Laboratory results taken from ChEMBL document CHEMBL1201862, “PubChem BioAssay data set” (2004).
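Protocol summary: plate cells (96-well), add compound at 5 concentrations, incubate 48 h, interpolate endpoints linearly. Here, GI50 denotes the concentration required for 50% inhibition of growth.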 Activity calls are given as the source filed them. No stated cut-off is given here; in the data, active = GI50 up to about 1.1 µM and inactive = higher.

What was measured:
Assay in all cases: growth of human tumour cells (NCI), 48 h
NCI-H522 = tested on: NCI-H522
HCC 2998 = tested on: HCC 2998
CCRF-CEM = tested on: CCRF-CEM
COLO 205 = tested on: COLO 205
HOP-92 = tested on: HOP-92
786-0 = tested on: 786-0
SF-539 = tested on: SF-539
HCT-116 = tested on: HCT-116
SF-295 = tested on: SF-295
NCI-H460 = tested on: NCI-H460
ACHN = tested on: ACHN
UO-31 = tested on: UO-31
CAKI-1 = tested on: CAKI-1
NCI-H226 = tested on: NCI-H226
RPMI-8226 = tested on: RPMI-8226
TK-10 = tested on: TK-10
SK-MEL-2 = tested on: SK-MEL-2
SNB-19 = tested on: SNB-19
MOLT-4 = tested on: MOLT-4
RXF 393 = tested on: RXF 393

Measured: GI50

Cn1c(=O)c2c(nc(Nc3ccc(Cl)cc3)n3c(=O)n(-c4ccccc4)c(=O)n23)n(C)c1=O
inactive: NCI-H522 > 100 µM | HCC 2998 > 100 µM | CCRF-CEM > 100 µM | COLO 205 > 100 µM | HOP-92 > 100 µM | 786-0 > 100 µM | SF-539 > 100 µM | HCT-116 > 100 µM | SF-295 > 100 µM | NCI-H460 > 100 µM | ACHN > 100 µM | UO-31 > 100 µM | CAKI-1 > 100 µM | NCI-H226 > 100 µM | RPMI-8226 > 100 µM | TK-10 > 100 µM | SK-MEL-2 > 100 µM | SNB-19 > 100 µM | MOLT-4 > 100 µM | RXF 393 > 100 µM

C[C@]12Cc3cn[nH]c3C(=O)C1CC[C@@H]1C2CC[C@@]2(C)C1CC[C@]2(C)O (stereo not given in full)
inactive: NCI-H522 > 100 µM | HCC 2998 > 100 µM | CCRF-CEM > 100 µM | COLO 205 > 100 µM | HOP-92 > 100 µM | 786-0 89.5 µM | SF-539 84.5 µM | HCT-116 > 100 µM | SF-295 > 100 µM | NCI-H460 > 100 µM | ACHN > 100 µM | UO-31 > 100 µM | CAKI-1 > 100 µM | NCI-H226 > 100 µM | RPMI-8226 > 100 µM | TK-10 > 100 µM | SK-MEL-2 > 100 µM | SNB-19 > 100 µM | MOLT-4 > 100 µM | RXF 393 > 100 µM

N#Cc1c(-c2ccc([N+](=O)[O-])cc2)cc(-c2ccc(Nc3ccnc4cc(C(F)(F)F)ccc34)cc2)nc1N
inactive: NCI-H522 17.2 µM | HCC 2998 14.1 µM | CCRF-CEM 1.88 µM | COLO 205 28.3 µM | HOP-92 20.8 µM | 786-0 4.1 µM | SF-539 26.9 µM | HCT-116 6.92 µM | SF-295 15.9 µM | NCI-H460 11.9 µM | ACHN 29.6 µM | UO-31 14.7 µM | CAKI-1 18.5 µM | NCI-H226 > 48.3 µM | RPMI-8226 4.27 µM | TK-10 > 48.2 µM | SK-MEL-2 > 41.3 µM | SNB-19 18.6 µM | MOLT-4 4.34 µM | RXF 393 19.1 µM
